Source: ChEMBL document CHEMBL6092153, “Research progress of BRD4 in head and neck squamous cell carcinoma: Therapeutic application of novel strategies and mechanisms” (Bioorg Med Chem, 2024)
pIC50: −log10 of the molar value.

How the values were obtained:
[1] = system: SAS; assay: Antiproliferative activity against human SAS cells assessed as reduction in cell viability by MTT assay; assay type: functional, cell-based
[2] = system: KYSE-150 cell line; assay: Antiproliferative activity against human KYSE-150 cell line assessed as inhibition of cell growth incubated for 48 hrs by CCK-8 assay; assay type: functional, cell-based; settings: KYSE-150, 48 h
[3] = Antiproliferative activity against human HOC313 cells assessed as reduction in cell viability by MTT assay; assay type: functional, cell-based
[4] = system: FaDu; assay: Antiproliferative activity against human FaDu cells assessed as inhibition of cell growth measured after 72 hrs by CCK-8 assay; assay type: functional, cell-based
[5] = system: KYSE-140; assay: Antiproliferative activity against human KYSE-140 cells assessed as inhibition of cell growth by MTT assay; assay type: functional, cell-based
[6] = system: KYSE-510; assay: Antiproliferative activity against human KYSE-510 cells assessed as reduction in cell growth incubated for 48 hrs by MTT assay; assay type: functional, cell-based; settings: KYSE-510, 48 h
[7] = Antiproliferative activity against human HaCaT cells assessed as inhibition of cell growth incubated for 48 hrs by SRB assay; assay type: toxicity, cell-based
[8] = system: TE-1; assay: Antiproliferative activity against human TE-1 cells assessed as inhibition of cell growth by MTT assay; assay type: functional, cell-based
[9] = system: ECa-109 cell line; assay: Antiproliferative activity against human EC109 cells assessed as reduction in cell viability measured after 48 hrs by CCK-8 method; assay type: functional, cell-based; settings: ECa-109, 48 h
[10] = system: KYSE-450; assay: Antiproliferative activity against human KYSE-450 cells assessed as reduction in cell growth incubated for 48 hrs by MTT assay; assay type: functional, cell-based; settings: KYSE-450, 48 h

Cc1sc2c(c1C)C(c1ccc(Cl)cc1)=N[C@@H](CC(=O)OC(C)(C)C)c1nnc(C)n1-2
pIC50 [1]: 6.77
pIC50 [2]: 4.26
pIC50 [3]: 6.54
pIC50 [4]: 5.02
pIC50 [5]: 5.38
pIC50 [6]: 6.92
IC50 at 48 h [7]: 0.32 µM
pIC50 [8]: 5.40
pIC50 [9]: 7.00
pIC50 [10]: 6.90
